Measured values from patent publication US7332476B2, “Pyridyl substituted ketolide antibiotics” (Novartis AG, priority 2003, dated 2008).
≈ marks a conversion by molar mass, not a printed value.

Key:
[1] = tested on: Streptococcus pyogenes Stpy_8668; experiment: MIC, broth microdilution (NCCLS); format: cell-based; design: MIC, strain ID G: unit not given beside the values
Outline: (§1)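 Broth microdilution per NCCLS in cation-adjusted Mueller-Hinton broth, with 2-5% lysed horse blood added for S. pneumoniae. Inoculum 3×10^5–7×10^5 CFU/ml, 2-fold drug dilutions, 18-24 h at 35° C; S. pneumoniae under 5-10% CO2, others ambient air. MIC = lowest concentration preventing visible growth.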

[2] = tested on: Streptococcus pneumoniae Stpn_297-749; experiment: MIC, broth microdilution (NCCLS); format: cell-based; design: MIC, strain ID N: unit not given here
Outline: as §1

[3] = In vivo pharmacokinetic study in rats, whole lung (IV and PO); conditions: male, Sprague-Dawley, 5 mg/kg, rat; for half-life: IV, whole lung, read-out: t1/2, IV Lung (converted); for Kp: lung/plasma, iv, read-out: L/P ratio, IV
Protocol: (§2) Animal Models. A total of 54 male Sprague-Dawley rats, weighing 200 grams in average, were evaluated for pharmacokinetic studies of representative pyridyl substituted ketolides. Rats were under overnight food restriction and received water ad libitum. Rats were acclimated for approximately 5 days before antibiotic administration.
(§3) Antibiotic Administration. Rats were given bolus administration through (IV) and oral (PO) routes. Representative pyridyl substituted ketolides and telithromycin, for comparison, were diluted in 0.85% saline to a concentration of 15.0 mg/ml, and the resulting pH was adjusted using 1N acetic acid until the compound was in solution. Approximately 200 microliters of the compound solution was administered to the rats. The target dose for IV and PO administration was 5 mg/kg and 15 mg/kg, respectively.
(§4) Sample Collection. Plasma and whole lung samples were collected from the rats. Plasma samples were obtained from blood samples by centrifugation at 3000 RPM for 10 min. Heparin was added in the plasma as an anticoagulant. Whole lung samples were homogenized in deionized water. Samples were stored at −80° C. A total of 9 time points were collected in triplicate at 0.083, 0.25, 0.5, 1, 2, 4, 6, 8, and 24 hrs. Ketolide concentrations in plasma and lung were determined by well-established non-GLP LC-MS-MS methods. PK parameters were estimated from the raw bioanalytical data using WinNolin software (Version 4.0, Pharsight Corporation, CA). […] All representative compounds were compared to telithromycin.

[4] = tested on: Streptococcus pneumoniae Stpn_280-962; experiment: MIC, broth microdilution (NCCLS); format: cell-based; design: MIC, strain ID O: unit not given beside the values
Outline: as §1

[5] = tested on: Streptococcus pneumoniae Stpn_Mef 5654; experiment: MIC, broth microdilution (NCCLS); format: cell-based; conditions: Table 10, Strain ID P (Table 8): Streptococcus pneumoniae Stpn_Mef 5654; in µg/mL (unit assumed)
Outline: as §1

[6] = tested on: Streptococcus pneumoniae Stpn_Erm S 4297; experiment: MIC, broth microdilution (NCCLS); format: cell-based
Outline: as §1

[7] = tested on: Streptococcus pneumoniae Stpn_Mef S 3427; experiment: MIC, broth microdilution (NCCLS); format: cell-based; conditions: Table 10, Strain ID Q (Table 8): Streptococcus pneumoniae Stpn_Mef S 3427
Outline: as §1

[8] = tested on: Haemophilus influenzae Hain_49247; experiment: MIC, broth microdilution (NCCLS); format: cell-based; conditions: unit assumed
[9] = tested on: Staphylococcus epidermidis Step_f50654; experiment: MIC, broth microdilution (NCCLS); format: cell-based
Outline: as §1

[10] = tested on: Enterococcus faecalis Enfa_29212; experiment: MIC, broth microdilution (NCCLS); format: cell-based
Outline: as §1

[11] = tested on: Staphylococcus aureus Stau_29213; experiment: MIC, broth microdilution (NCCLS); format: cell-based
Outline: as §1

[12] = tested on: Staphylococcus epidermidis Step_14990; experiment: MIC, broth microdilution (NCCLS); format: cell-based
Outline: as §1

[13] = tested on: Haemophilus influenzae Hain_953460299-3; experiment: MIC, broth microdilution (NCCLS); format: cell-based; conditions: in µg/mL (unit assumed)
Outline: (§5)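 Broth microdilution per NCCLS in cation-adjusted Mueller-Hinton broth, or Haemophilus Test Medium for H. influenzae, with 2-fold serial drug dilutions and 3×10^5–7×10^5 CFU/ml inoculum. Trays incubated 18-24 hours at 35° C (H. influenzae in 5-10% CO2). MIC = lowest concentration preventing visible growth.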

[14] = tested on: Haemophilus influenzae Hain_2762; experiment: MIC, broth microdilution (NCCLS); format: cell-based; conditions: in µg/mL (unit assumed)
Outline: as §5

[15] = tested on: Haemophilus influenzae Hain_960820544-3; experiment: MIC, broth microdilution (NCCLS); format: cell-based; conditions: in µg/mL (unit assumed)
Outline: as §5

[16] = tested on: Enterococcus faecalis Enfa_bc 11148-2; experiment: MIC, broth microdilution (NCCLS); format: cell-based; conditions: in µg/mL (unit assumed)
Outline: as §5

[17] = tested on: Staphylococcus aureus Stau_33591; experiment: MIC, broth microdilution (NCCLS); format: cell-based; conditions: unit assumed
Outline: as §5

[18] = tested on: Haemophilus influenzae Hain_960730503-3; experiment: MIC, broth microdilution (NCCLS); format: cell-based; conditions: in µg/mL (unit assumed)
Outline: as §5

[19] = tested on: Streptococcus pneumoniae Stpn_49619; experiment: MIC, broth microdilution (NCCLS); format: cell-based; design: MIC, strain ID M: unit not given beside the values
Outline: as §1

[20] = In vivo pharmacokinetic study in rats, plasma (IV and PO); design: species or system Sprague-Dawley rats; conditions: rat; for half-life / AUC / clearance / Vd: male, Sprague-Dawley, plasma; for half-life: 5 mg/kg, read-out: t1/2, IV Plasma (converted); for half-life / AUC: IV; for AUC: dose IV = 5 mg/kg (Compound XIV: IV = 15); for clearance / Vd: intravenous; for Vd: read-out: Vss; for F, PO: PO = 15 mg/kg
Protocol: as §2, §3, §4

[21] = tested on: S. pneumoniae Stpn_Erm 6849; experiment: MIC, broth microdilution (NCCLS); format: cell-based, Streptococcus pneumoniae; conditions: strain ID P; broth microdilution; in µg/mL (unit assumed)
Outline: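 Lowest drug concentration giving no visible growth after 18-24 hours at 35° C. under 5-10% CO2 was taken as MIC. Twofold serial dilutions in CAMHB plus 2-5% lysed horse blood, final inoculum 3×10^5–7×10^5 CFU/ml, per NCCLS microdilution.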

C=C[C@]12OC(=O)N(CCCCn3cnc(-c4ccc(Cl)nc4)c3)[C@@H]1[C@@H](C)C(=O)[C@H](C)C[C@](C)(OC)[C@H](OC1O[C@H](C)C[C@H](N(C)C)[C@H]1O)[C@@H](C)C(=O)[C@@H](C)C(=O)O[C@@H]2CC (stereo partly shown) [XX]
MIC ([1]; Table 10, Strain ID G (Table 8): Streptococcus pyogenes Stpy_8668): =0.05 | MIC ([2]; Table 10, Strain ID N (Table 8): Streptococcus pneumoniae Stpn_297-749): =0.05 | half-life [3]: 1.4 h | Kp [3]: 94 | MIC ([4]; Table 10, Strain ID O (Table 8): Streptococcus pneumoniae Stpn_280-962): =0.05 | MIC [5]: 0.2 | MIC ([6]; Table 10, Strain ID R (Table 8): Streptococcus pneumoniae Stpn_Erm S 4297): =0.05 | MIC [7]: =0.05 | MIC ([8]; Table 10, Strain ID H (Table 8): Haemophilus influenzae Hain_49247): 3.13 µg/mL (≈ 3.65 µM) | MIC ([9]; Table 10, Strain ID D (Table 8): Staphylococcus epidermidis Step_f50654): =0.05 | MIC ([10]; Table 10, Strain ID E (Table 8): Enterococcus faecalis Enfa_29212): =0.05 | MIC ([11]; Table 10, Strain ID A (Table 8): Staphylococcus aureus Stau_29213): =0.05 | MIC ([12]; Table 10, Strain ID C (Table 8): Staphylococcus epidermidis Step_14990): =0.05 | MIC ([13]; Table 10, Strain ID K (Table 8): Haemophilus influenzae Hain_953460299-3): 6.25 | MIC ([14]; Table 10, Strain ID L (Table 8): Haemophilus influenzae Hain_2762): 0.78 | MIC ([15]; Table 10, Strain ID J (Table 8): Haemophilus influenzae Hain_960820544-3): 3.13 | MIC ([16]; Table 10, Strain ID F (Table 8): Enterococcus faecalis Enfa_bc 11148-2): 0.1 | MIC ([17]; Table 10, Strain ID B (Table 8): Staphylococcus aureus Stau_33591): > 50 µg/mL | MIC ([18]; Table 10, Strain ID I (Table 8): Haemophilus influenzae Hain_960730503-3): 3.13 | MIC ([19]; Table 10, Strain ID M (Table 8): Streptococcus pneumoniae Stpn_49619): =0.05 | half-life [20]: 1.3 h | AUC [20]: 2300 ng·h/mL | clearance [20]: 107 mL/min/kg | Vd [20]: 12 L/kg | F, PO [20]: 26%

C=C[C@]12OC(=O)N(CCCCn3cnc(-c4cnccc4Cl)c3)[C@@H]1[C@@H](C)C(=O)[C@H](C)C[C@](C)(OC)[C@H](OC1O[C@H](C)C[C@H](N(C)C)[C@H]1O)[C@@H](C)C(=O)[C@@H](C)C(=O)O[C@@H]2CC (stereo partly shown) [XXX]
MIC, strain ID P [21]: 0.4 | MIC, strain ID G ([1]; strain ID G, broth microdilution): =0.05 | MIC, strain ID N ([2]; strain ID N, broth microdilution): =0.05 | half-life [3]: 1.2 h | Kp [3]: 75 | MIC, strain ID O ([4]; strain ID O, broth microdilution): =0.05 | MIC, strain ID Q ([6]; strain ID Q, broth microdilution): =0.05 | MIC, strain ID H ([8]; strain ID H, broth microdilution): 3.13 µg/mL (≈ 3.65 µM) | MIC, strain ID D ([9]; strain ID D, broth microdilution, in µg/mL (unit assumed)): 0.1 | MIC, strain ID E ([10]; strain ID E, broth microdilution): =0.05 | MIC, strain ID A ([11]; strain ID A, broth microdilution, in µg/mL (unit assumed)): 0.2 | MIC, strain ID C ([12]; strain ID C, broth microdilution, in µg/mL (unit assumed)): 0.2 | MIC, strain ID K ([13]; strain ID K, broth microdilution): 3.13 | MIC, strain ID L ([14]; strain ID L, broth microdilution): 0.78 | MIC, strain ID J ([15]; strain ID J, broth microdilution): 6.25 | MIC, strain ID F ([16]; strain ID F, broth microdilution): 0.4 | MIC, strain ID B ([17]; strain ID B, broth microdilution): > 50 µg/mL | MIC, strain ID I ([18]; strain ID I, broth microdilution): 6.25 | MIC, strain ID M ([19]; strain ID M, broth microdilution): =0.05 | half-life [20]: 1 h | AUC [20]: 2100 ng·h/mL | clearance [20]: 121 mL/min/kg | Vd [20]: 8 L/kg | F, PO [20]: 21%
